Experimental findings from ChEMBL document CHEMBL1777768, “Comparative CYP1A1 and CYP1B1 substrate and inhibitor profile of dietary flavonoids” (Bioorg Med Chem, 2011) are described below.

Molecules are shown by their SMILES. The source made the active and inactive calls. The calls are words filed in the database; no cut-off is given here.

The target of series [1] is T1, CYP1A1 (Homo sapiens, UniProt P04798).
T1 sequence (P04798 whole entry): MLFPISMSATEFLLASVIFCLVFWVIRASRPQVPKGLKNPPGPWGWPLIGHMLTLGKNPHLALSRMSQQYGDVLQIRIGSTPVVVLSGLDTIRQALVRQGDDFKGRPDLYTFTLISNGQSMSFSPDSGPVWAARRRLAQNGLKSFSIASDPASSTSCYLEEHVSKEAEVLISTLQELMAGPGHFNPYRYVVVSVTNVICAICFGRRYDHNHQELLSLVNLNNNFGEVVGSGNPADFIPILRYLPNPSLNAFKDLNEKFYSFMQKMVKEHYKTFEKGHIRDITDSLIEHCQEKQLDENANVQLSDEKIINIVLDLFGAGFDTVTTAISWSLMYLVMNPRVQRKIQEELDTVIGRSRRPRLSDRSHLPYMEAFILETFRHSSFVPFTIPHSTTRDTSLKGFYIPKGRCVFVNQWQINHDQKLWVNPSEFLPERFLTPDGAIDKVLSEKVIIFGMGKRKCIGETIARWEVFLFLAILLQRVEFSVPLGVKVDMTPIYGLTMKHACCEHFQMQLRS
The series can be described thus: Activity at CYP1A1 in recombinant human CYP1A1 microsomes assessed as parent compound remaining after 20 mins by HPLC analysis.

Series [2] concerns the target T2, Cytochrome P450 1A1 (Homo sapiens, UniProt P04798).
T2 sequence (P04798 whole entry): T1 sequence (P04798 whole entry)
The series can be described thus: Inhibition of CYP1A1 EROD activity assessed as inhibition of deethylation of 7-ethoxyresorufin to resorufin. The format is ADME.

Series [3] addresses Cytochrome P450 1B1 (Homo sapiens) (UniProt Q16678). The series can be described thus: Activity at recombinant CYP1B1 assessed as E5M1 metabolite elution time at 10 uM by HPLC analysis. As to conditions: recombinant enzyme.
The subject of series [4] is MDA-MB-468. Put plainly: Anticancer activity against CYP1 expressing human MDA-MB-468 cells by MTT assay. The format is functional, cell-based.
In series [5] the test system is MDA-MB-468. Put plainly: Activation factor, ratio of IC50 for non-CYP1 expressing human MCF10A to IC50 for CYP1 expressing human MDA-MB-468 cells. The class given is functional.
In series [6] the target is T2, Cytochrome P450 1A1. The series can be described thus: Activity at recombinant CYP1A1 assessed as E5M1 metabolite elution time at 10 uM by HPLC analysis. The class given is ADME. The settings on record: recombinant enzyme.
Series [7] concerns MCF-10A. The series can be described thus: Anticancer activity against non-CYP1 expressing human MCF10A cells by MTT assay. The format is functional, cell-based.
The target of series [8] is T3, Cytochrome P450 1B1 (Homo sapiens, UniProt Q16678).
T3 sequence (Q16678 whole entry): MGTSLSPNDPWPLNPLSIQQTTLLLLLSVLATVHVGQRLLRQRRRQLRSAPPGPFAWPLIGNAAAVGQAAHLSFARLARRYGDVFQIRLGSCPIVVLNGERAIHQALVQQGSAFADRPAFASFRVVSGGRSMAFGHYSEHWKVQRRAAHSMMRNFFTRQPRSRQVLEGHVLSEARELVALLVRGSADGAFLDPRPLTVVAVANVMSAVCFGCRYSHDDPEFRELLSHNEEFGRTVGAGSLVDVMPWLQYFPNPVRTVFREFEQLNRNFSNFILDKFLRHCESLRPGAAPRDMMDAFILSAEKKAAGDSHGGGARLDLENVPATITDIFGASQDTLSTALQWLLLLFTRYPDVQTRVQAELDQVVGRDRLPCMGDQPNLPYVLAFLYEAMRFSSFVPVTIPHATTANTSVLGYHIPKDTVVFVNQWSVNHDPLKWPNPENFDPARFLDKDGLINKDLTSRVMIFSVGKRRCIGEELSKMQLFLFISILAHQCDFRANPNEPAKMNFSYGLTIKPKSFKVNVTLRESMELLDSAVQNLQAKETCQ
Put plainly: Inhibition of CYP1B1 EROD activity assessed as inhibition of deethylation of 7-ethoxyresorufin to resorufin. The format is ADME.

In series [9] the target is T2, Cytochrome P450 1A1. The series can be described thus: Activity at recombinant CYP1A1 assessed as AM1 metabolite production at 10 uM after 20 mins by HPLC analysis. The format is ADME. The settings on record: recombinant enzyme.
The target in series [10] is T2, Cytochrome P450 1A1. Put plainly: Activity at recombinant CYP1A1 assessed as luteolin production at 10 uM after 20 mins by HPLC analysis. The class given is ADME. The settings on record: recombinant enzyme.
For series [11], the target named is T2, Cytochrome P450 1A1. The series can be described thus: Activity at recombinant CYP1A1 assessed as AM1 metabolite retention time at 10 uM by HPLC analysis. As to conditions: recombinant enzyme. The format is ADME.
For series [12], the target named is T2, Cytochrome P450 1A1. The series can be described thus: Activity at recombinant CYP1A1 assessed as scutellarein production at 10 uM after 20 mins by HPLC analysis. The class given is ADME. The settings on record: recombinant enzyme.
The target in series [13] is T2, Cytochrome P450 1A1. Put plainly: Activity at recombinant CYP1A1 assessed as apigenin production at 10 uM after 20 mins by HPLC analysis. The class given is ADME. The settings on record: recombinant enzyme.

In the case of `O=c1cc(-c2ccccc2)oc2cc(O)cc(O)c12` [CHRYSIN], in [1], the share remaining at 20 min amounted to 15.9%.

For the molecule `COc1ccc(-c2cc(=O)c3c(OC)c(OC)c(OC)cc3o2)cc1O`, the Ki in series [2] was 630 nM; in series [8], 670 nM. The Time in [3] and in series [6] was 8.9 min throughout. In addition, in [4], the result was Active. The “Ratio IC50” value in [5] came to 100. In addition, the outcome in series [7] was inactive. The fraction remaining at 20 min in series [1] turned out to be 20.4%.

Regarding `COc1cc2oc(-c3ccc(O)c(O)c3)cc(=O)c2c(O)c1OC` [CIRSILIOL], the Ki in series [2] and in series [8] was greater than 800 nM throughout. Further, the “Ratio IC50” value in series [5] is reported as 8. The fraction remaining at 20 min in series [1] came to 16.7%.

In the case of `COc1ccc(-c2cc(=O)c3c(O)c(OC)c(OC)cc3o2)cc1O` [EUPATORIN], the values for the Ki in series [2] and in [8] were 210 nM and 35 nM, respectively. Besides, the “Ratio IC50” value in series [5] was determined as 100. In addition, in series [1], the fraction remaining at 20 min is 47.8%.

Consider `O=c1cc(-c2ccccc2)oc2cc(O)c(O)c(O)c12` [BAICALEIN], for which the Ki in [2] stood at 1220 nM; in series [8] it was 260 nM. Further, the “Ratio IC50” value in [5] was determined as 1.7.

With `COc1ccc(-c2cc(=O)c3c(OC)c(OC)c(OC)cc3o2)cc1OC` [SINENSETIN], in series [5], the “Ratio IC50” value turned out to be 325. In addition, the amount remaining at 20 min in series [1] came out at 68.9%.

In the case of `COc1cc(O)c2c(=O)cc(-c3ccc(O)cc3)oc2c1` [GENKWANIN], the Ki in series [2] and in [8] was greater than 2340 nM each time. The “Ratio IC50” value in [5] amounted to 47. The amount remaining at 20 min in series [1] amounted to 34%.

With `O=c1cc(-c2ccc(O)cc2)oc2cc(O)c(O)c(O)c12` [SCUTELLAREIN], the Ki in series [2] was 1640 nM; in series [8] it was 220 nM. In series [5], the “Ratio IC50” value stood at 3.3. Further, the fraction remaining at 20 min in series [1] is 12.6%.

Consider `COc1ccc(-c2cc(=O)c3c(O)cc(O)cc3o2)cc1` [ACACETIN], for which the outcome in series [9], in [10], in [12] and in [13] was Active. Further, the Time in series [11] stood at 11.3 min. Besides, the fraction remaining at 20 min in series [1] was determined as 15.9%.

Take `O=c1c(O)c(-c2cc(O)c(O)c(O)c2)oc2cc(O)cc(O)c12` [MYRICETIN]: the inhibition constant Ki in series [2] stood at 370 nM; in series [8] it was 27 nM.
